The results in this text go back to ChEMBL document CHEMBL2074541, “TP-search Transporter Database” (Hepatology, 1999).

Common to all, as to type: functional, cell-based
For data set [1], the target named is T1, Solute carrier organic anion transporter family member 1A1 (Rattus norvegicus, UniProt P46720).
T1 sequence (P46720 whole entry): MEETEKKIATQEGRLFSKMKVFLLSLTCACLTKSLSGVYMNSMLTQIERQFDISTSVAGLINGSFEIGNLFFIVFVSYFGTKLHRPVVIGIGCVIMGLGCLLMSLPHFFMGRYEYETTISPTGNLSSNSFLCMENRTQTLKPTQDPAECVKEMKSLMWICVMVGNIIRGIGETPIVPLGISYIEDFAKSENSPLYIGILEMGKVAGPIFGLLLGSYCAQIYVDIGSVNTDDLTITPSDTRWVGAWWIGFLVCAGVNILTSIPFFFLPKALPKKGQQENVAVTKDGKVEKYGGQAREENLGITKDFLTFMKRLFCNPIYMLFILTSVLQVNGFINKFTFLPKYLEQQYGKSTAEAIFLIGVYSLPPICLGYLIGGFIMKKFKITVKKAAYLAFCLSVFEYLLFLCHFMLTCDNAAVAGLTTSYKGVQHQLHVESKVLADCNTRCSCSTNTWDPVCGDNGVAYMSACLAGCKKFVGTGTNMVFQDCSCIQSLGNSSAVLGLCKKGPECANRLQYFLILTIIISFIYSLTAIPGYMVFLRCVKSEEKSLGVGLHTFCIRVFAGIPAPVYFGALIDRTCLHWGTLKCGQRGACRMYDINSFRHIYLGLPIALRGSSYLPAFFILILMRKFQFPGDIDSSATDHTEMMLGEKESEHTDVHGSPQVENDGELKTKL
The data set is described as follows: (§1) TP_TRANSPORTER: uptake in Oatp1-expressing HeLa cells. The settings on record: human.

Substrate in data set [2]: C[C@H](CCC(=O)NCCS(=O)(=O)O)C1CC[C@H]2[C@@H]3C[C@H](O)[C@@H]4C[C@H](O)CC[C@]4(C)[C@H]3CC[C@]12C
The data set is described as §1.

Substrate in data set [3]: C[C@H](CCC(=O)NCCS(=O)(=O)O)[C@H]1CC[C@H]2[C@@H]3[C@H](O)C[C@@H]4C[C@H](O)CC[C@]4(C)[C@H]3CC[C@]12C
The description is as §1.

Substrate in data set [4]: O=C1OC(c2ccc(O)c(S(=O)(=O)O)c2)(c2ccc(O)c(S(=O)(=O)O)c2)c2c(Br)c(Br)c(Br)c(Br)c21
The data set is described as §1.

In the case of `C[C@H](CCC(=O)O)[C@H]1CC[C@H]2[C@@H]3C[C@H](O)[C@@H]4C[C@H](O)CC[C@]4(C)[C@H]3CC[C@]12C` [HYODEOXYCHOLIC_ACID], the Activity entry in data set [1] was “substrate [+]”.

Take `C[C@H](CCC(=O)NCCS(=O)(=O)O)[C@H]1CC[C@H]2[C@@H]3C[C@@H](O)[C@@H]4C[C@H](O)CC[C@]4(C)[C@H]3CC[C@]12C` [TAUROMUROCHOLATE]: the Activity entry in data set [1] was “substrate [+]”.

Turning to `C[C@H](CCC(=O)NCCS(=O)(=O)O)[C@H]1CC[C@H]2[C@@H]3CC[C@H]4C[C@H](O)CC[C@]4(C)[C@H]3C[C@@H](O)[C@]12C` [TAUROLAGODEOXYCHOLATE], the Activity entry in data set [1] was “substrate [+]”.

B1: Solute carrier organic anion transporter family member 1A1 (Rattus norvegicus) (protein)
chain: MEETEKKIATQEGRLFSKMKVFLLSLTCACLTKSLSGVYMNSMLTQIERQFDISTSVAGLINGSFEIGNLFFIVFVSYFGTKLHRPVVIGIGCVIMGLGCLLMSLPHFFMGRYEYETTISPTGNLSSNSFLCMENRTQTLKPTQDPAECVKEMKSLMWICVMVGNIIRGIGETPIVPLGISYIEDFAKSENSPLYIGILEMGKVAGPIFGLLLGSYCAQIYVDIGSVNTDDLTITPSDTRWVGAWWIGFLVCAGVNILTSIPFFFLPKALPKKGQQENVAVTKDGKVEKYGGQAREENLGITKDFLTFMKRLFCNPIYMLFILTSVLQVNGFINKFTFLPKYLEQQYGKSTAEAIFLIGVYSLPPICLGYLIGGFIMKKFKITVKKAAYLAFCLSVFEYLLFLCHFMLTCDNAAVAGLTTSYKGVQHQLHVESKVLADCNTRCSCSTNTWDPVCGDNGVAYMSACLAGCKKFVGTGTNMVFQDCSCIQSLGNSSAVLGLCKKGPECANRLQYFLILTIIISFIYSLTAIPGYMVFLRCVKSEEKSLGVGLHTFCIRVFAGIPAPVYFGALIDRTCLHWGTLKCGQRGACRMYDINSFRHIYLGLPIALRGSSYLPAFFILILMRKFQFPGDIDSSATDHTEMMLGEKESEHTDVHGSPQVENDGELKTKL
On to B1, for which the Km in data set [2] amounted to 7.5 µM; in data set [3] it was 4.9 µM; in data set [4] it was 3.3 µM.

In general, Km refers to the concentration of substrate that gives half-maximal velocity.
